US7705189B2, “Calixarene compound, process for producing the same, intermediate therefor, and composition thereof” (JSR Corporation, priority 2004, dated 2010)

Experiment: Thermal characteristics by TG/DTA
Format: physicochemical
Conditions: nitrogen atmosphere, temperature rise 10° C./min
Text: TG/DTA and DSC were used for the determination of the decomposition initiation temperature, 5% mass reduction temperature, and glass transition temperature of the derivatives shown in Table 3. The glass transition temperature could not be determined in any of the compounds. All compounds were confirmed to have high heat resistance. Comparison of T3 with T3-7 in which vinyl ether was deprotected and a spacer was introduced confirmed that there were almost no changes in the decomposition initiation temperature and 5% mass reduction temperature caused by introduction of the spacer. The lower decomposition initiation temperatures of these compounds as compared with other derivatives are due to their slight acidity resulting from the hydroxyl groups. […] T3-2a decomposed in two stages, that is, first the decomposition of phthalic acid ester bond and second the decomposition of the ester bond of methacryloyl groups.

Row | First decomposition temperature: 5% mass decomposition temperature | First decomposition temperature: Decomposition initiation temperature | Compound
1 | 365 °C | 336 °C | C=COCCOc1cc(OCCOC=C)c2cc1C1CCCC3c4cc(c(OCCOC=C)cc4OCCOC=C)C4CCCC5c6cc(c(OCCOC=C)cc6OCCOC=C)C(CCCC6c7cc(c(OCCOC=C)cc7OCCOC=C)C(CCCC7c8cc(c(OCCOC=C)cc8OCCOC=C)C(CCCC(c8cc(c(OCCOC=C)cc8OCCOC=C)C(CCCC2c2cc4c(OCCOC=C)cc2OCCOC=C)c2cc7c(OCCOC=C)cc2OCCOC=C)c2cc1c(OCCOC=C)cc2OCCOC=C)c1cc6c(OCCOC=C)cc1OCCOC=C)c1cc5c(OCCOC=C)cc1OCCOC=C)c1cc3c(OCCOC=C)cc1OCCOC=C [T3-6]
2 | 348 °C | 375 °C | OCCOc1cc(OCCO)c2cc1C1CCCC3c4cc(c(OCCO)cc4OCCO)C4CCCC5c6cc(c(OCCO)cc6OCCO)C(CCCC6c7cc(c(OCCO)cc7OCCO)C(CCCC7c8cc(c(OCCO)cc8OCCO)C(CCCC(c8cc(c(OCCO)cc8OCCO)C(CCCC2c2cc4c(OCCO)cc2OCCO)c2cc7c(OCCO)cc2OCCO)c2cc1c(OCCO)cc2OCCO)c1cc6c(OCCO)cc1OCCO)c1cc5c(OCCO)cc1OCCO)c1cc3c(OCCO)cc1OCCO [T3-7]
3 | 365 °C | 333 °C | Oc1cc(O)c2cc1C1CCCC3c4cc(c(O)cc4O)C4CCCC5c6cc(c(O)cc6O)C(CCCC6c7cc(c(O)cc7O)C(CCCC7c8cc(c(O)cc8O)C(CCCC(c8cc(c(O)cc8O)C(CCCC2c2cc4c(O)cc2O)c2cc7c(O)cc2O)c2cc1c(O)cc2O)c1cc6c(O)cc1O)c1cc5c(O)cc1O)c1cc3c(O)cc1O [T3]

Row | Compound | First decomposition temperature: 5% mass decomposition temperature | First decomposition temperature: Decomposition initiation temperature
4 | C=C(C)C(=O)Oc1cc(OC(=O)C(=C)C)c2cc1C1CCCC3c4cc(c(OC(=O)C(=C)C)cc4OC(=O)C(=C)C)C4CCCC5c6cc(c(OC(=O)C(=C)C)cc6OC(=O)C(=C)C)C(CCCC6c7cc(c(OC(=O)C(=C)C)cc7OC(=O)C(=C)C)C(CCCC7c8cc(c(OC(=O)C(=C)C)cc8OC(=O)C(=C)C)C(CCCC(c8cc(c(OC(=O)C(=C)C)cc8OC(=O)C(=C)C)C(CCCC2c2cc4c(OC(=O)C(=C)C)cc2OC(=O)C(=C)C)c2cc7c(OC(=O)C(=C)C)cc2OC(=O)C(=C)C)c2cc1c(OC(=O)C(=C)C)cc2OC(=O)C(=C)C)c1cc6c(OC(=O)C(=C)C)cc1OC(=O)C(=C)C)c1cc5c(OC(=O)C(=C)C)cc1OC(=O)C(=C)C)c1cc3c(OC(=O)C(=C)C)cc1OC(=O)C(=C)C [T3-1] | 418 °C | 387 °C

Experiment: Solubility test (2 ml solvent added to 2 mg derivative)
Format: physicochemical
Conditions: not given
Experimental: A solubility test was carried out by adding 2 ml of each of the solvents shown in Table 4 to 2 mg of each of the derivatives listed in Table 4.

Row | Compound | Solubility in acetone and methylene chloride
5 | CC1=C2OCOc3c4cc5c(c3C)OCOc3c6cc7c(c3C)OCOc3c8cc9c(c3C)OCOc3c%10cc%11c(c3C)OCOc3c%12cc%13c(c3C)OCOc3c(cc%14c(c3C)OCOc3c%15cc%16c(c3C)OCOc3c(cc%17c(c3C)OCOc3c%18cc%19c(c3C)OCOc3c(cc%20c(c3C)OCOc3c(cc%21c(c3C)OCOC1=C(C=C2C4CCCC9%10)C%21CCCC%18%17)C%20CCCC56)C%19CCCC%15%14)C%16CCCC%11%12)C%13CCCC78 (stereo not drawn) [formula (33)] | dissolved in acetone and methylene chloride
